# US20220177485A1, “CAMPTOTHECIN DERIVATIVE, PREPARATION METHOD THEREFOR AND APPLICATION THEREOF” (MARINE BIOMEDICAL RESEARCH INSTITUTE OF QINGDAO CO., LTD., priority 2018, published 2022)
# Read-outs that look alike come from different tables or passages of the source.
# Tests used:
# [1] = tested on: K562 cells (human chronic myeloid leukemia cells); assay: growth inhibition of tumor cells in vitro, K562; type: cell-based
# Excerpt: We tested compounds target a variety of tumor cell for the growth inhibition to show its antitumor activity by using the method of the field technicians known. Chooses the tumor cell lines include: A549 cell non-small cell lung cancer cell line (people), K562 cells (human chronic myeloid leukemia cells), NCI-H1975 cells (non-small cell lung adenocarcinoma cancer cell), MDA-MB-231 cells (human breast cancer cells) and HCT-116 cells (human colon cancer cells).
# [2] = target: heat shock protein (HSP90); assay: macromolecular interaction on chip, HSP90; type: binding; details: compound fixed on the chip; HSP90 100 nM
# Experimental: (§1) The experimental scheme: 1. Fixed the compounds on the chip:
# (§2) Mobile phase were EGF (1 μM), FGF (1 μM), HSP90 (100 nM), FKBP12 (100 nM).
# (§3) Detection whether small molecule compounds combined with the provided protein of heat shock protein (HSP90), epidermal growth factor (EGF) and fibroblast growth factor (FGF); and provide relevant data of combined dynamics.
# [3] = target: T1, epidermal growth factor (EGF) (Homo sapiens, UniProt P01133); assay: macromolecular interaction on chip, EGF; type: binding; details: for KD EGF: compound fixed on the chip, EGF 1 μM
# T1 construct: epidermal growth factor (EGF)
# T1 sequence (P01133 971-1023 limits assumed, species assumed): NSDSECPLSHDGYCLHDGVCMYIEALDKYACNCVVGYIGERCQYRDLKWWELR
# Experimental: as §1, §2, §3
# [4] = target: fibroblast growth factor (FGF); assay: macromolecular interaction on chip, FGF; type: binding; details: compound fixed on the chip; FGF 1 μM
# Experimental: as §1, §2, §3
# [5] = K562 cell line, read-out: IC50 K562
SMILES,"IC50 [1, 5]",melting point,KD HSP90 [2],KD EGF [3],KD FGF [4],other results
"CC[C@@]1(O)C(=O)OCc2c1cc1n(c2=O)Cc2c-1nc1cc3c(cc1c2CCc1ccc(N2CCSCC2)cc1)OCO3 [Compound 20, 20(S)-7-(4-(4-thiomorpholino)phenethyl)-10,11-methylenedioxy-camptothecin]",145 ± 4.35 nM,154 to 156 °C,,,,
"CC[C@@]1(O)C(=O)OCc2c1cc1n(c2=O)Cc2c-1nc1cc3c(cc1c2CCc1ccc(N2CCOCC2)cc1)OCO3 [Compound 8, 20(S)-7-(4-(4-morpholino)phenethyl)-10,11-methylenedioxy-camptothecin]",,,No combination,No combination,No combination,
"CC[C@@]1(O)C(=O)OCc2c1cc1n(c2=O)Cc2c-1nc1cc3c(cc1c2CCc1cc(F)c(N2CCOCC2)c(F)c1)OCO3 [Compound 18, 20(S)-7-(3,5-difluoro-4-(4-morpholino)phenethyl)-10,11-methylenedioxy-camptothecin]",489 ± 6.65 nM,246 to 247 °C,,,,
"CC[C@@]1(O)C(=O)OCc2c1cc1n(c2=O)Cc2c-1nc1cc3c(cc1c2/C=C/c1cccc(F)c1)OCO3 [Compound 4, 20(S)-7-(3-fluorostyryl)-10,11-methylenedioxy-camptothecin]",,> 250 °C,No combination,No combination,No combination,
CC[C@@]1(O)C(=O)OCc2c1cc1n(c2=O)Cc2c-1nc1cc3c(cc1c2-c1ccc(F)c(F)c1)OCO3 [Compound 42],181 ± 8.55 nM,,,,,
CC[C@@]1(O)C(=O)OCc2c1cc1n(c2=O)Cc2c-1nc1cc3c(cc1c2-c1ccc(F)cc1)OCO3 [Compound 32],963 ± 7.61 nM,,No combination,No combination,No combination,
CC[C@@]1(O)C(=O)OCc2c1cc1n(c2=O)Cc2c-1nc1cc3c(cc1c2-c1ccccc1F)OCO3 [Compound 41],,,,,,"IC50 ([1]; K562, read-out: IC50 K562): 1037 ± 10.2 nM"
"CC[C@@]1(O)C(=O)OCc2c1cc1n(c2=O)Cc2c-1nc1cc3c(cc1c2N1CCOCC1)OCO3 [Compound 43, 20(S)-7-morpholino-10,11-methylenedioxy-camptothecin]",,> 250 °C,,,,"IC50 ([1]; K562, read-out: IC50 K562): 837 ± 9.44 nM"
"CC[C@@]1(O)C(=O)OCc2c1cc1n(c2=O)Cc2c-1nc1cc3c(cc1c2/C=C/c1ccccc1F)OCO3 [Compound 5, 20(S)-7-(2-fluorostyryl)-10,11-methylenedioxy-camptothecin]",,> 250 °C,No combination,No combination,No combination,
CC[C@@]1(O)C(=O)OCc2c1cc1n(c2=O)Cc2c-1nc1cc3c(cc1c2CCc1cc(F)c(N2CCCC2)c(F)c1)OCO3,,> 250 °C,,,,
"CC[C@@]1(O)C(=O)OCc2c1cc1n(c2=O)Cc2c-1nc1cc3c(cc1c2CCN1CCCCC1)OCO3 [Compound 52, 20(S)-7-(2-(piperidin-1-yl)ethyl)-10,11-methylenedioxy-camptothecin]",,,No combination,No combination,can combine,Kd [4]: 7.15 nM
"CC[C@@]1(O)C(=O)OCc2c1cc1n(c2=O)Cc2c-1nc1cc3c(cc1c2/C=C/c1ccc(F)cc1)OCO3 [Compound 3, 20(S)-7-(4-fluorostyryl)-10,11-methylenedioxy-camptothecin]",66 ± 3.65 nM,> 250 °C,No combination,can combine,No combination,Kd [3]: 5.3 nM
"CC[C@@]1(O)C(=O)OCc2c1cc1n(c2=O)Cc2c-1nc1cc3c(cc1c2CCc1ccccc1N1CCCC1)OCO3 [Compound 16, 20(S)-7-(2-(pyrrolidin-1-yl)phenethyl)-10,11-methylenedioxy-camptothecin]",115 ± 7.6 nM,139 to 140 °C,,,,
CC[C@@]1(O)C(=O)OCc2c1cc1n(c2=O)Cc2c-1nc1cc3c(cc1c2CCc1ccc(N2CCCCC2)cc1)OCO3,,> 250 °C,,,,
